Data published in US8168639B2, “Heterotricyclic compounds as serotonergic and/or dopaminergic agents and uses thereof” (ATIR Holding S.A., priority 2006, dated 2012).

Columns and labels:
[1] = biological target: T1, D4.4 type dopamine receptor (human recombinant, CHO cells) (Homo sapiens, UniProt P21917); experiment: Competitive binding to D4.4 dopamine receptor, [3H]-YM-09151-2 radioligand; settings: [3H]-YM-09151-2 0.3 nM; for D4.4(h) receptor Competitive Binding, % at 100 nM: 100 nM compound; for D4.4(h) receptor Competitive Binding, % at 1 μM: 1 μM compound
T1 construct: expressed in transfected cells; host or cells: CHO cells
T1 sequence (P21917 1-419): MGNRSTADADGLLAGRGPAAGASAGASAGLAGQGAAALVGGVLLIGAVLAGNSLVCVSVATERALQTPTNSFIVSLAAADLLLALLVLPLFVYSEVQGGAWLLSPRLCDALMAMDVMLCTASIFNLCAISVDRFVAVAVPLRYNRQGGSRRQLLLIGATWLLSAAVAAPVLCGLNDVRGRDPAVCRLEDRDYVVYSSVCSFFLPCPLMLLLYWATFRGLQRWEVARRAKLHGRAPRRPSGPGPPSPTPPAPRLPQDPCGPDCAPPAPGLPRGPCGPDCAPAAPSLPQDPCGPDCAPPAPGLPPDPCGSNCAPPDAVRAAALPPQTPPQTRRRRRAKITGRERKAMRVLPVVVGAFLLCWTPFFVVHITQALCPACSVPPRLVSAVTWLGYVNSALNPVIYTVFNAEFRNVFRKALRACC
Protocol: Compounds were assayed for competitive binding to the D4.4 type dopamine receptors, which is expressed as human recombinant proteins in CHO cells, as described, for example, in Jarvis et al. (1973); Van Tol et al. (1991) and Van Tol et al. (1992).
Determination of binding to D4.4 receptor was performed using [^3H]-YM-09151-2 (70-87 Ci/mmol, 0.3 nM), as a radioligand, in with the presence of various concentrations of the tested compound. Reactions were carried out in 50 mM TRIS-HCl (pH 7.4) containing 5 mM MgCl2, 5 mM EDTA, 5 mM KCl and 1.5 mM CaCl2, for 60 minutes at 22° C. The reaction was terminated by rapid vacuum filtration onto glass fiber filters. Radioactivity trapped onto the filters was determined (counted) and compared to control values in order to accurately evaluate any interaction of the tested compound(s) with the cloned dopamine D4.4 binding site.

[2] = biological target: T2, 5-HT1A type serotonin receptor (human recombinant, HEK-293 cells) (Homo sapiens, UniProt P08908); experiment: Competitive binding to 5-HT1A receptor, [3H]-8-OH-DPAT radioligand; settings: [3H]-8-OH-DPAT 0.5 nM; for 5HT1A receptor Binding % at 1 nM: 1 nM compound; for 5HT1A receptor Binding % at 10 nM: 10 nM compound; for 5HT1A receptor Binding % at 100 nM: 100 nM compound; for 5HT1A receptor Binding % at 1 μM: 1 μM compound; for 5HT1A receptor Binding % at 5 μM: 5 μM compound
T2 construct: expressed in transfected cells; host or cells: HEK-293 cells
T2 sequence (P08908 1-422): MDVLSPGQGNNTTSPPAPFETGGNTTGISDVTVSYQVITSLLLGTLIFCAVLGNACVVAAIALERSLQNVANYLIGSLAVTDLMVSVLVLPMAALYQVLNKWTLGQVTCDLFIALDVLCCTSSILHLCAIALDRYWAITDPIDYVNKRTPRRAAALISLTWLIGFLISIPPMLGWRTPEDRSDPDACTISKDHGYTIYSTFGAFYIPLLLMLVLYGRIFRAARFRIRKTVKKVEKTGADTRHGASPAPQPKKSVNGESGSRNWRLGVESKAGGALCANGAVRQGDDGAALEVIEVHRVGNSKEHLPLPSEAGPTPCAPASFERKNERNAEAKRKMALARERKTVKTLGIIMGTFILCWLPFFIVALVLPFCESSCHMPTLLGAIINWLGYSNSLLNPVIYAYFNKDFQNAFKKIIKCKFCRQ
Protocol: Compounds were assayed for competitive binding to the 5-HT1A type serotonin receptor. The receptor is expressed as human recombinant proteins in HEK-293 cells, as described, for example, in Hoyer et al. (1985) and Schoeffter and Hoyer (1989).
Determination of binding to 5-HT1A receptor was performed using [^3H]-8-OH-DPAT, a 5-HT1A receptor ligand (Hoyer et al., 1985), as a radioligand (221 Ci/mmol, 0.5 nM) in the presence of various concentrations of the tested compound. Reactions were carried out in 50 mM Tris-HCl (pH 7.4) containing 10 mM MgSO4, 0.5 mM EDTA, and 0.1% ascorbic acid for 60 minutes at 25° C. The reaction was terminated by rapid vacuum filtration onto glass fiber filters. Radioactivity trapped onto the filters was determined (counted) and compared to control values in order to accurately evaluate any interaction of the test compound(s) with the cloned 5-HT1A receptor binding site.

[3] = biological target: T3, Human recombinant serotonin 5-HT1A receptors expressed in CHO cells (Homo sapiens, UniProt P08908); experiment: [35S]GTPγS 5-HT1A activity assay; assay type: biochemical; settings: 10 μM compound; [35S]GTPγS binding increase relative to serotonin
T3 construct: expressed in transfected cells; host or cells: CHO cells
T3 sequence (P08908 1-422): T2 sequence (P08908 1-422)
Protocol: Human recombinant serotonin 5-HT1A receptors expressed in CHO cells were used. The tested compound were incubated with cell membranes and [^35S]GTPγS for 30 minutes in modified HEPES buffer (pH=7.4). Test compound-induced increase of [^35S]GTPγS binding was quantified relative to serotonin-induced increase of [^35S]GTPγS. Compounds were tested at concentrations of 10, 1 and 0.1 μM.

Sprague Dawley rats = experiment: Penile erection test in rats; assay type: in vivo, rat; settings: 0.3 µmol/kg, subcutaneous; for Percent of animals showing erection response: moderate to strong erection
Protocol: Penile erection was tested in Sprague Dawley rats. The experimental group included 50 adult male rats, with body weights in the range of 312-330 grams. The animals were housed for acclimatization in a cage, and water and food were supplied ad libitum.
Penile erection experiments were carried out in morning hours between 9 AM and 11 AM, in a dark room with a red light source. Control groups included 10 animals that received saline as a placebo, and 10 animals that received 0.3 μmol/kg body weight of apomorphine hydrochloride in 1 ml of saline, as a positive control. […]
Penile erection was tested in Sprague Dawley rats, according to the protocol described hereinabove.

[4] = tested on: Male ferrets (Mustela putorius furo); experiment: Ferret emesis model; assay type: in vivo, ferret (Mustela putorius furo); settings: 0.3 μmol/kg subcutaneous, observed 90 minutes
Protocol: Male ferrets (Mustela putorius furo) were made to fast overnight before experiments. 18 animals (weighing 0.8-1.0 kg) were divided into the following three groups of six:
(1) test group—received the compound being tested, e dissolved in 1 ml saline at a dose of 0.3 μmol/kg body weight, administered subcutaneously;
(2) negative control—received saline; and
(3) positive control—received apomorphine.
Animals were placed individually in observation cages and received cat food 30 minutes before the experiment.
One ml of saline was administered subcutaneously. Apomorphine and the test compound were dissolved in 1 ml saline at a dose of 0.3 μmol/kg body weight. Induced emesis or nausea was determined by direct observation during 90 minutes following drug injection. Nausea was characterized by behavior such as licking, gagging, backing, head burying and intense abdominal grooming. Emesis was characterized by rhythmic abdominal contractions.

Row | SMILES | D4.4(h) receptor Competitive Binding, % at 100 nM [1] | D4.4(h) receptor Competitive Binding, % at 1 μM [1] | 5HT1A receptor Binding % at 1 nM [2] | 5HT1A receptor Binding % at 10 nM [2] | 5HT1A receptor Binding % at 100 nM [2] | 5HT1A receptor Binding % at 1 μM [2] | 5HT1A receptor Binding % at 5 μM [2] | % activation of 5HT1A at 10 μM [3] | Number of animals showing moderate to strong erection (Sprague Dawley rats) | Time during which erection was shown (Sprague Dawley rats) | Percent of animals showing erection response (Sprague Dawley rats) | Number of ferrets showing signs of nausea and/or emesis [4]
1 | O=c1[nH]c(CN2CCC(c3ccccc3)CC2)nc2sc3c(c12)CCCC3 [Compound B-93] | 16.69% | 81.97% | active | active | active | active | active | active | – | – | – | –
2 | CCOc1ccccc1N1CCN(Cc2nc3sc4c(c3c(=O)[nH]2)CCCC4)CC1 [Compound B-94] | 19.14% | 89.02% | 0.9% | 20.23% | 44.56% | 62.77% | 97.67% | 50% | – | – | – | –
3 | O=c1[nH]c(CN2CCN(c3cccc(O)c3)CC2)nc2sc3c(c12)CCCC3 [Compound B-95] | 32.26% | 86.68% | active | active | active | active | active | active | – | – | – | –
4 | Oc1cccc(N2CCN(Cc3cc4c(cn3)[nH]c3ccccc34)CC2)c1 [Compound B-96] | 87.6% | 102.45% | active | active | active | active | active | active | – | – | – | –
5 | CCOc1ccccc1N1CCN(Cc2cc3c(cn2)[nH]c2ccccc23)CC1 [Compound B-97] | 74.27% | 100.99% | 1.78% | 37.48% | 75.08% | 99.45% | 100.34% | 48% | – | – | – | –
6 | COc1ccccc1N1CCN(Cc2cc3c(cn2)[nH]c2ccccc23)CC1 [Compound B-99] | 97.43% | 102.4% | active | active | active | active | active | active | 26 of the 30 animals | 45 to 70 min | 87% | none
7 | CN1CCc2cccc3c2[C@H]1Cc1ccc(O)c(O)c1-3 [apomorphine, reference compound] | – | – | – | – | – | – | – | – | – | 15 to 25 min | 70% | 4 of the 6 ferrets
